“Also recorded” adds a separate entry of the source.
Assays:
Format in all cases: cell-based, human
[1] = test system: Rhodopsin expression in retinal organoids derived from hESCs; assay: Immunohistochemistry quantification of Rhodopsin+ cells (rods) at day 150; conditions: addition day 90-120, organoids at day 150, compared to vehicle control
Description: Human Pluripotent Stem Cells differentiation to retinal organoids Retinal organoids were differentiated from the CRX-GFP H9 human ESC cell line using a feeder-free system. ESCs were expanded in […] Technologies, 05850) at 37° C. and 5% CO2 on 6 well plates pre-coated with Low Growth Factor Matrigel (Corning, 354230). The retinal organoids were generated following a protocol described in Collin et al., 2019 [25] with addition of various supplements, which are shown in FIG. 1. […] DAPT was only added from day 30-42 (for day 30-60 combined addition with RA from day 30-60), day 60-72 (for the combined addition with RA from day 60-90), day 90-102 (for the combined addition with RA from day 90-120) and day 30-42 (for the combined addition with RA from day 30-120). Retinal organoids were collected on day 150 and fixed in 2% PFA for 30 minutes, followed by three washes in Phosphate-buffered saline (PBS), incubated overnight in 30% sucrose in PBS, embedded in Optical Cutting medium (OCT) ([…], UK) and frozen at -20° C. Ten-micrometre cryostat sections were collected using a Leica Cm1860 cryostat (Leica, Germany) onto Superfrost Plus slides and stored at -20° C. in slide boxes prior to immunostaining. Cryosections were air-dried, washed several times in PBS and incubated in blocking solution (10% normal goat serum, 0.3% Triton-X-100 in PBS) for one hour at room temperature. Slides were incubated with the appropriate primary antibody overnight at 4° C. (Table 2). After rinsing with PBS, sections were incubated with the secondary antibody for 2 hours at room temperature. Alexa Fluor 647 and 546 secondary antibodies (InvitrogenMolecular Probes) were used at a 1:1000 dilution. Negative controls were carried out by omitting the primary antibody. Afterwards, sections were washed three times in PBS and mounted with Vectashield (Vector Laboratories, Burlingame, Calif.) containing Hoechst (LifeTechnologies, UK). Images were captured using an Axio Imager upright microscope with Apotome (Zeiss, Germany) structured illumination fluorescence using 20× objective and 63× oil objective operated with AxioVision software. Final images are presented as a maximum projection and adjusted for brightness and contrast in Adobe Photoshop (Adobe Systems). Cell image quantitation was performed using the MATLAB software (Mathworks, MA) following the protocol described in Dorgau et al., 2019 [26]. A minimum of eight individual retinal organoids were analysed for each condition. All results were further analysed using Microsoft Excel and Prism (GraphPad, USA).

retinal organoids = assay: Retinal organoid lamination and tissue architecture at day 150; conditions: day 150 of differentiation
Description: (§1) Human Pluripotent Stem Cells differentiation to retinal organoids Retinal organoids were differentiated from the CRX-GFP H9 human ESC cell line using a feeder-free system. ESCs were expanded in mTeSR™1 (StemCell Technologies, 05850) at 37° C. and 5% CO2 on 6 well plates pre-coated with Low Growth Factor Matrigel (Corning, 354230). The retinal organoids were generated following a protocol described in Collin et al., 2019 [25] with addition of various supplements, which are shown in FIG. 1.
The tested supplements include Retinoic Acid (RA) (0.5 μM or 1 μM Sigma-Aldrich UK), 9-cis-retinal (0.5 μM, Sigma-Aldrich UK), 11-cis-retinal (0.5 μM, BOC Sciences), Levodopa (0.5 μM, Sigma-Aldrich UK), Triiodothyronine (T3) (20 ng/ml or 40 ng/ml, Sigma-Aldrich) and DAPT (10 μM Sigma-Aldrich UK) singly or in combination with each other from day 18 of differentiation for specific durations (day 18 onwards, day 30-60, day 60-90, day 90-120 and day 30-120), except for DAPT (FIG. 1). […]
(§2) Images were captured using an Axio Imager upright microscope with Apotome (Zeiss, Germany) structured illumination fluorescence using 20× objective and 63× oil objective operated with AxioVision software. […]

[2] = test system: OPN1MW/LW (L/M cones) expression in retinal organoids derived from hESCs; assay: Immunohistochemistry quantification of OPN1MW/LW+ cells (L/M cones) at day 150; conditions: addition day 30-120; organoids at day 150; compared to vehicle control
Description: as §1, with “1. […]” for “1.”
as §2
Cell image quantitation was performed using the MATLAB software (Mathworks, MA) following the protocol described in Dorgau et al., 2019 [26]. A minimum of eight individual retinal organoids were analysed for each condition. All results were further analysed using Microsoft Excel and Prism (GraphPad, USA).

| SMILES | Rhodopsin+ cells (rods), immunohistochemistry quantification [1] | Effect on tissue architecture and lamination of the retinal organoids (retinal organoids) | Rhodopsin+ cells (rods), immunohistochemistry quantification ([1]; listed as RA alone) | OPN1MW/LW+ cells (L/M cones), IHC quantification [2] |
| --- | --- | --- | --- | --- |
| CC1=C(/C=C/C(C)=C\C=C\C(C)=C\C=O)C(C)(C)CCC1 [9-cis-retinal] | lower |  |  |  |
| CC1=C(/C=C/C(C)=C/C=C/C(C)=C/C=O)C(C)(C)CCC1 [11-cis-retinal] | lower; also recorded: reduction |  |  |  |
| C[C@H](NC(=O)Cc1cc(F)cc(F)c1)C(=O)N[C@H](C(=O)OC(C)(C)C)c1ccccc1 [DAPT] |  | did not interfere |  |  |
| CC1=C(/C=C/C(C)=C/C=C/C(C)=C/C(=O)O)C(C)(C)CCC1 [RA, all-trans-retinoic acid] | reduction |  | lower | significantly enhanced |

Source: patent US20220315888A1, “CULTURE METHOD FOR RETINAL ORGANOIDS” (University of Newcastle Upon Tyne, priority 2019, published 2022)
